Values of other authors, collected in the CATMoS acute toxicity set (Mansouri et al. 2021).
Several values for one entry are separate records, joined by “and”; a condition that tells them apart may be missing. Identical values can stand only once.

test: rat acute oral toxicity; settings: in vivo

| Structure (SMILES) | LD50 |
| --- | --- |
| CCCCC(C)C(C)C(C)C(C)=O (configuration not stated) | 8470 mg/kg |
| O=C(O)/C=C/c1ccc(Cn2ccnc2)cc1 | 4160 mg/kg |
| CS(=O)C(C)(C)C(N)=O (configuration not stated) | 16000 mg/kg |
| N#Cc1cc([N+](=O)[O-])ccc1N | 3880 mg/kg |
| C1C2OC2C2C1C1CC2C2OC12 (configuration not stated) | 210 mg/kg |
| O=c1ccc(O)n[nH]1 | 3900 mg/kg |
| C=CCSCC1(C(C)CCC)C(=O)N=C(O)NC1=O (configuration not stated) | 702 mg/kg |
| N=C(N)NCC1CCC(C(=O)Oc2ccccc2C(=O)OCc2ccccc2)CC1 (configuration not stated) | 8010 mg/kg |
| CC(C)(C)C(CS(C)(=O)=O)=NO | 734 mg/kg |
| CN(C)S(=O)(=O)N(SC(F)(Cl)Cl)c1ccccc1 | 500 mg/kg |
| CCCCC(CC)C(O)C(=O)O (configuration not stated) | 3400 mg/kg |
| Cc1ccc(N)cc1O | 3600 mg/kg |
| COc1cc(Oc2ccc(Cl)cc2Cl)ccc1[N+](=O)[O-] | 18000 mg/kg |
| ClCc1cc(Cl)cc(Cl)c1 | 1080 mg/kg |
| Cc1cnc(C)cn1 | 1020 mg/kg |
| Oc1ccc2nc(C(F)(F)F)[nH]c2c1 | 41 mg/kg |
| Clc1cc(Cl)c2nsnc2c1Cl | 1620 mg/kg |
| O=C1NC(=O)C(c2ccccc2)(c2ccccc2)N1S(=O)(=O)c1ccccc1 | 1700 mg/kg |
| CCC(C)CC(CC)Nc1ccc(NC(CC)CC(C)CC)cc1 (configuration not stated) | 2400 mg/kg |
| CC1OC1(C)C (configuration not stated) | 2640 mg/kg |
| COC(=O)C(C(=O)Cc1c(C)n(C(=O)c2ccc(Cl)cc2)c2ccc(OC)cc12)C(=O)OC | 208 mg/kg |
| CCc1c(C)nc2cc(C)cc(C)n2c1=O | 1500 mg/kg |
| COC(C)CCOC(C)=O (configuration not stated) | 4210 mg/kg |
| O=C(O)Cc1ccc2c(c1)OCc1ccccc1C2=O | 110 mg/kg |

| Structure (SMILES) | LD50 |
| --- | --- |
| C[C@H]1C(=O)O[C@@H]2CCN3CC=C(COC(=O)[C@](C)(O)[C@]1(C)O)[C@H]23 | 66 mg/kg |
| CCOP(=S)(OCC)SC1CCC2C=CCC1S2 (configuration not stated) | 140 mg/kg |
| O=C1CN2CCOC2(c2ccccc2F)c2cc(Br)ccc2N1 (configuration not stated) | 2860 mg/kg |
| CNC(=O)Oc1cc(C)c(S(C)=O)c(C)c1 (configuration not stated) | 42 mg/kg |
| C1CN2CCN1CC2 | 1700 mg/kg |
| ClC1(Cl)C2(Cl)C3C4(Cl)C1(Cl)C1(Cl)C4(Cl)C(Cl)(Cl)C3(Cl)C21Cl (configuration not stated) | 200 mg/kg |
| CCOP(=S)(OCC)Oc1ccc(Cl)c([N+](=O)[O-])c1 | 100 mg/kg |
| CCOP(=S)(OCC)SC=C(C)SC | 2.5 mg/kg |
| CCN(CC)c1ccc(C=O)cc1 | 6400 mg/kg |
| CCN1CCCC1CNS(=O)(=O)c1cc(Cl)c(N)cc1OC (configuration not stated) | 1500 mg/kg |
| CCCCN(CCCC)CCOc1ccnc(N)n1 | 1000 mg/kg |
| CNC(=O)Oc1ccccc1C1OCCO1 | 25 mg/kg |
| CCCCCCCCCCCCCC[n+]1ccc(C)cc1 | 250 mg/kg |
| O=S(=O)(Cl)c1ccc(Cl)cc1 | 4250 mg/kg |
| COC(=O)c1cccc(CCN(C)Cc2ccccc2)c1 | 700 mg/kg |
| Cc1ccc2[nH]c(=S)[nH]c2c1 | 340 mg/kg |
| CC1=C(C(=O)OCCN(C)Cc2ccc(F)cc2)C(c2cccc3c2OCO3)C(C(=O)OC(C)C)=C(C)N1 (configuration not stated) | 64 mg/kg |
| COc1cc(C2NC(=O)CCS2)cc(OC)c1OC (configuration not stated) | 5400 mg/kg |
| Cc1ncc(CSSCc2cnc(C)c(O)c2CCl)c(CCl)c1O | 4300 mg/kg |
| CN=C(O)O/N=C1\SCOC1C(C)C (configuration not stated) | 16 mg/kg |
| CCCCN(CCCC)CC(C)O (configuration not stated) | 1990 mg/kg |
| CC(C)CNC(=O)OCC(O)C1COc2ccccc2O1 (configuration not stated) | 1500 mg/kg |
| CCc1ccc(C)cc1O | 530 mg/kg |
| CCCCC1(COC(=O)CCC(=O)O)C(=O)N(c2ccccc2)N(c2ccccc2)C1=O | 1700 mg/kg |

| Structure (SMILES) | LD50 |
| --- | --- |
| OCC1CCc2cc(C3CCCCC3)ccc21 (configuration not stated) | 295 mg/kg and 165 mg/kg |
| C=CCSCC=C | 2980 mg/kg |
| O=NN(c1ccccc1)c1ccccc1 | 1820 mg/kg |
| CC(C)C(=O)OCCc1ccccc1 | 5200 mg/kg |
| CC(C)c1cc(Oc2c(I)cc(CC(=O)O)cc2I)ccc1O | 5.4 mg/kg |
| CCOC(=O)CSP(=S)(OCC)OCC | 1100 mg/kg |
| COc1cccc(CCc2ccccc2OCC(CN(C)C)OC(=O)CCC(=O)O)c1 (configuration not stated) | 4400 mg/kg |
| CO[Si](CCCN=C=O)(OC)OC | 878 mg/kg |
| CCCC(=O)NP(=O)(OC)SC (configuration not stated) | 125 mg/kg |
| Cc1cccc(Nc2ccccc2C(=O)O)c1C | 740 mg/kg |
| CNC(=O)CSP(O)(=S)OC (configuration not stated) | 1500 mg/kg |
| O=C(O)Cc1ccc(-c2ccccc2)cc1 | 164 mg/kg |
| Cc1cc(C)cc(C(=O)Cl)c1 | 3160 mg/kg |
| Cc1cccnc1-n1c(C)nc2ccccc2c1=O | 395 mg/kg |
| CN(C)C(=O)CN1C(=O)C2C3C=C(C(O)(c4ccccc4)c4ccccn4)C(C3=C(c3ccccc3)c3ccccn3)C2C1=O (configuration not stated) | 5.9 mg/kg |
| CCOC(C1=NCCCCN1)c1ccccc1 (configuration not stated) | 375 mg/kg |
| CCOP(=O)(OCC)SC=C(Cl)Cl | 1.75 mg/kg |
| CO[Si](OC)(OC)c1ccccc1 | 1050 mg/kg |
| COP(=O)(OC)O/C(=C\Cl)c1ccc(Cl)cc1Cl | 97.5 mg/kg |
| CCOP(=O)(OCC)OC(=CBr)c1ccc(Cl)cc1Cl | 21.4 mg/kg |
| CN(C)c1ccc(Cn2cnc3c2c(=O)n(C)c(=O)n3C)cc1 | 1100 mg/kg |
| c1ccc(C2(c3ccccc3)OCC(C3CCCCN3)O2)cc1 (configuration not stated) | 310 mg/kg and 280 mg/kg |
| CCCCC(CC)CNCC(CC)CCCC (configuration not stated) | 1640 mg/kg |
| COc1cc(Cc2cnc(N)nc2N)cc(OC)c1N(C)C | 1400 mg/kg |
